The target in assay [1] is T1, rCRFBP (Rattus norvegicus, UniProt P24388).
T1 construct: made in house; host or cells: HEK 293 cells, stably transfected (pcDNA3); serum-free conditioned medium used directly
T1 sequence (P24388 25-322): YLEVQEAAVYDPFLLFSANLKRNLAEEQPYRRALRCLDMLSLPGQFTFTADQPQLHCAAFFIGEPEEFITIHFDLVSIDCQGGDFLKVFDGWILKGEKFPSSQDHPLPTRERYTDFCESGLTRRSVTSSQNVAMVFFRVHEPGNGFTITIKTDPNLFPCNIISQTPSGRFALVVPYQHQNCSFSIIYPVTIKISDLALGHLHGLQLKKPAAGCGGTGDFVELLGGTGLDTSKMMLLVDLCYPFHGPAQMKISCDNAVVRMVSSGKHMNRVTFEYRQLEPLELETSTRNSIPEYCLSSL
Briefly: Photoaffinity labeling of rCRFBP (photoadduct formation). The class given is biochemical. The conditions noted are these: for Photoadduct yield determined by immunoblotting: comparison of photoprobes (FIG. 6). On the procedure: 1 nM CRFBP was incubated with a 100 fold molar excess of photoactivatable ligand for 1 hour at room temperature. […] The irradiation was carried out with UV-light of wavelenghts greater than 300 nm in an ice bath.
rCRFBP (approximate final concentration 10 nM) was incubated with 100 nM of the photoactivatable peptide according to the conditions of the radioligand binding assay. Medium from stably transfected HEK 293 cells was directly used as source for rCRFBP. Irradiation of the benzophenone photoprobes was carried out at 0° C. with a self-constructed photoreaction device incorporating a 400 W halogen metal vapor lamp (Ultratech, Osram, Germany). This lamp provides a wide spectrum of emission at wavelenghts above 250 nm with a maximum at 370 nm which is consistent with the activation wavelenght (350-360 nm) for benzophenone derivatives (13). Protein-damaging wavelenghts below 300 nm were avoided by the use of a filter screen consisting of the optical glass type B 270 (Schoft, Mainz, Germany). The aryldiazirine photoprobe was irradiated as described (14) using a commercially available stratalinker device.
Unless otherwise stated, activation was carried out for 30 min at 0° C. with an Ultratech 400 W halogen metal vapor lamp (Osram). Protein-damaging wavelenghts below 300 nm were filtered with a B270 glass screen (Schott). Unlabeled rCRFBP and the photoadduct were co-purified by adsorption to a nickel-chelate matrix under denaturing conditions. The eluted fraction was analyzed by SDS PAGE (45) (9% polyacrylamide gels) and by reversed-phase HPLC coupled on-line to mass spectrometry (HPLC-MS) on a Vydac C4 column (0.3×150 mm; LC Packings).

Assay [2] concerns the target T1, rCRFBP. Briefly: Radioligand binding assay (charcoal precipitation, 3H-rUcn) for affinity to rCRFBP. As to conditions: for Ki: mean ± S.E.M. of three independent experiments in duplicate, 3H-rUcn radioligand, Cheng-Prusoff, read-out: Inhibition constants (Kl). On the procedure: The peptides were tested for their affinity to rCRFBP on the basis of a charcoal precipitation assay utilizing tritiated Ucn as radioligand (21). […] Siliconized microreaction vials (Sigma, Deisenhofen, Germany) were used to prevent binding of peptides to plastic surfaces. Competition binding experiments were performed by employing 0 to maximally 3 μM unlabeled competitor. The applied concentration range depended on the expected order of magnitude of ligand affinity. After 2 hours of incubation at room temperature, unbound ligand was precipitated by the addition of 100 μl precipitation buffer (binding buffer+10% w/v activated charcoal+2% BSA). The suspension was mixed vigorously and the adsorption was allowed to proceed for 2 min at room temperature. After centrifugation for 2 min at 12000×g, 200 μl supernatant was removed, mixed with 2 ml Ecolume liquid scintillation cocktail (ICN Biomedicals, Irvine, Calif.), and counted for 3 min in a Wallac 1209 Rackbeta liquid scintillation counter (Wallac, Turku, Finland). All assays were performed in duplicate and repeated at least three times. Binding data were analyzed using the Prism computer program (GraphPad Software, San Diego, Calif.).

The target of assay [3] is T1, rCRFBP. Briefly: Scintillation proximity assay with [125I-Tyr0]h/rCRF as radioligand, binding to rCRFBP. An excerpt: Recombinant rCRFBP containing a C-terminal His-tag was produced in human embryonic kidney (HEK) 293 cells under serum-free conditions (45).
Where [4] appears, read: photoprobe pBB-rUcn, competitor in ten-fold excess (FIG. 5).
Setting [5] is: photoprobes 100 nM, competitor 1 μM (FIG. 12a).

Values joined by “and” are separate entries in the source; they are usually repeats but may differ in a detail not shown here. Equal values may be shown once. Non-standard residues stand in square brackets, D forms with d. Residues, ends and D or L forms follow the SMILES beside them. No end group written: not given here. *: point of attachment. Benzoyl(4-benzoyl) = O=C(c1ccccc1)c1ccc(C(=O)*)cc1; Bpa = N[C@@H](Cc1ccc(C(=O)c2ccccc2)cc1)C(=O)O

`CC[C@H](C)[C@H](NC(=O)[C@H](CO)NC(=O)[C@H](CC(C)C)NC(=O)[C@@H]1CCCN1C(=O)[C@@H]1CCCN1C(=O)[C@H](CC(=O)O)NC(=O)[C@H](CC(=O)O)NC(=O)c1ccc(C(=O)c2ccccc2)cc1)C(=O)N[C@@H](CC(=O)O)C(=O)N[C@@H](CC(C)C)C(=O)N[C@H](C(=O)N[C@@H](Cc1ccccc1)C(=O)N[C@@H](Cc1c[nH]cn1)C(=O)N[C@@H](CC(C)C)C(=O)N[C@@H](CC(C)C)C(=O)N[C@@H](CCCNC(=N)N)C(=O)N[C@H](C(=O)N[C@@H](CC(C)C)C(=O)N[C@@H](CC(C)C)C(=O)N[C@@H](CCC(=O)O)C(=O)N[C@@H](CC(C)C)C(=O)N[C@@H](C)C(=O)N[C@@H](CCCNC(=N)N)C(=O)N[C@H](C(=O)N[C@@H](CCC(N)=O)C(=O)N[C@@H](CO)C(=O)N[C@@H](CCC(N)=O)C(=O)N[C@@H](CCCNC(=N)N)C(=O)N[C@@H](CCC(=O)O)C(=O)N[C@@H](CCCNC(=N)N)C(=O)N[C@@H](C)C(=O)N[C@@H](CCC(=O)O)C(=O)N[C@@H](CCC(N)=O)C(=O)N[C@@H](CC(N)=O)C(=O)N[C@@H](CCCNC(=N)N)C(=O)N[C@H](C(=O)N[C@H](C(=O)N[C@@H](Cc1ccccc1)C(=O)N[C@@H](CC(=O)O)C(=O)N[C@@H](CO)C(=O)N[C@H](C(N)=O)C(C)C)[C@@H](C)CC)[C@@H](C)CC)[C@@H](C)O)[C@@H](C)O)[C@@H](C)O` [Compound 2, pBB-rUcn]: the “Photoadduct yield by integration of the UV trace” value in assay [1] (HPLC of affinity purified photoreaction products (FIG. 8)) is recorded as 60%. The Maximal photoadduct yield entry in assay [1] (Western blot densitometry, 30 min irradiation with B 270 filter screen (FIG. 4C)) is listed as “up to 50%”. Further, the “Photoadduct yield determined by immunoblotting” value in assay [1] is reported as 50%. For the same compound, the “Photoadduct yield by SDS PAGE silver staining” value in assay [1] (preparative scale, nickel-affinity purified (FIG. 7)) is on record as 50%. Also, in assay [2], the Ki is < 1 nM and 0.99 nM.

For the compound pBB-h/rCRF^6-33 [Compound 10], in assay [1] (immunodetection, densitometry (FIG. 12c)), the “Photoadduct yield at different time points of irradiation” value is listed as at most 65%.

Turning to rUcn [Compound 1, reference compound], the “Suppression of photoadduct formation by competitor” value (from here on “Suppression”) in assay [1] (setting [4]) is recorded as “suppressed”.

Regarding pBB-h/rCRF [Compound 4], the “Photoadduct yield determined by immunoblotting” value in assay [1] was determined as 50%.

As for `CC[C@H](C)[C@H](NC(=O)[C@H](CO)NC(=O)[C@H](CC(C)C)NC(=O)c1ccc(C(=O)c2ccccc2)cc1)C(=O)N[C@@H](CC(=O)O)C(=O)N[C@@H](CC(C)C)C(=O)N[C@H](C(=O)N[C@@H](Cc1ccccc1)C(=O)N[C@@H](Cc1c[nH]cn1)C(=O)N[C@@H](CC(C)C)C(=O)N[C@@H](CC(C)C)C(=O)N[C@@H](CCCNC(=N)N)C(=O)N[C@H](C(=O)N[C@@H](CC(C)C)C(=O)N[C@@H](CC(C)C)C(=O)N[C@@H](CCC(=O)O)C(=O)N[C@@H](CC(C)C)C(=O)N[C@@H](C)C(=O)N[C@@H](CCCNC(=N)N)C(=O)N[C@H](C(=O)N[C@@H](CCC(N)=O)C(=O)N[C@@H](CO)C(=O)N[C@@H](CCC(N)=O)C(=O)N[C@@H](CCCNC(=N)N)C(=O)N[C@@H](CCC(=O)O)C(=O)N[C@@H](CCCNC(=N)N)C(=O)N[C@@H](C)C(=O)N[C@@H](CCC(=O)O)C(=O)N[C@@H](CCC(N)=O)C(=O)O)[C@@H](C)O)[C@@H](C)O)[C@@H](C)O` [Compound 8, pBB-rUcn^5-32] ({Benzoyl(4-benzoyl)}-LSIDLTFHLLRTLLELARTQSQRERAEQ-OH), the Ki in assay [2] came out at 37 ± 3.5 nM.

As for `CC[C@H](C)[C@H](NC(=O)c1ccc(C(=O)c2ccccc2)cc1)C(=O)N[C@@H](CO)C(=O)N[C@@H](CC(C)C)C(=O)N[C@@H](CC(=O)O)C(=O)N[C@@H](CC(C)C)C(=O)N[C@H](C(=O)N[C@@H](Cc1ccccc1)C(=O)N[C@@H](Cc1c[nH]cn1)C(=O)N[C@@H](CC(C)C)C(=O)N[C@@H](CC(C)C)C(=O)N[C@@H](CCCNC(=N)N)C(=O)N[C@@H](CCC(=O)O)C(=O)N[C@H](C(=O)N[C@@H](CC(C)C)C(=O)N[C@@H](CCC(=O)O)C(=O)N[C@@H](CCSC)C(=O)N[C@@H](C)C(=O)N[C@@H](CCCNC(=N)N)C(=O)N[C@@H](C)C(=O)N[C@@H](CCC(=O)O)C(=O)N[C@@H](CCC(N)=O)C(=O)N[C@@H](CC(C)C)C(=O)N[C@@H](C)C(=O)N[C@@H](CCC(N)=O)C(=O)N[C@@H](CCC(N)=O)C(=O)N[C@@H](C)C(=O)N[C@@H](Cc1ccc(C(=O)c2ccccc2)cc1)C(=O)N[C@@H](CO)C(=O)O)C(C)C)[C@@H](C)O` [Compound 15, [pBPhe^32] pBB-h/rCRF^6-33] ({Benzoyl(4-benzoyl)}-ISLDLTFHLLREVLEMARAEQLAQQA[Bpa]S-OH), in assay [3] (Example 8, 95% CI given alongside, read-out: IC50 (affinity to rCRFBP)), the half-inhibitory concentration (IC50) amounted to 14 nM. Moreover, the “Decrease of affinity compared to h/rCRF^6-33” value in assay [3] (bifunctional photoprobe) is recorded as “decreased by a factor of seven”.

On to “H-ISLDLTFHLLREVLEMARAEQLAQQAHS-OH [Compound 9, h/rCRF^6-33, reference compound]”, for which the “Suppression” value in assay [1] (setting [5]) was “completely suppressed”.

`CC[C@H](C)[C@H](NC(=O)[C@H](CO)NC(=O)[C@H](CC(C)C)NC(=O)[C@@H]1CCCN1C(=O)[C@@H]1CCCN1C(=O)[C@H](CC(=O)O)NC(=O)[C@@H](N)CC(=O)O)C(=O)N[C@@H](CC(=O)O)C(=O)N[C@@H](CC(C)C)C(=O)N[C@H](C(=O)N[C@@H](Cc1ccc(C(=O)c2ccccc2)cc1)C(=O)N[C@@H](Cc1c[nH]cn1)C(=O)N[C@@H](CC(C)C)C(=O)N[C@@H](CC(C)C)C(=O)N[C@@H](CCCNC(=N)N)C(=O)N[C@H](C(=O)N[C@@H](CC(C)C)C(=O)N[C@@H](CC(C)C)C(=O)N[C@@H](CCC(=O)O)C(=O)N[C@@H](CC(C)C)C(=O)N[C@@H](C)C(=O)N[C@@H](CCCNC(=N)N)C(=O)N[C@H](C(=O)N[C@@H](CCC(N)=O)C(=O)N[C@@H](CO)C(=O)N[C@@H](CCC(N)=O)C(=O)N[C@@H](CCCNC(=N)N)C(=O)N[C@@H](CCC(=O)O)C(=O)N[C@@H](CCCNC(=N)N)C(=O)N[C@@H](C)C(=O)N[C@@H](CCC(=O)O)C(=O)N[C@@H](CCC(N)=O)C(=O)N[C@@H](CC(N)=O)C(=O)N[C@@H](CCCNC(=N)N)C(=O)N[C@H](C(=O)N[C@H](C(=O)N[C@@H](Cc1ccccc1)C(=O)N[C@@H](CC(=O)O)C(=O)N[C@@H](CO)C(=O)N[C@H](C(N)=O)C(C)C)[C@@H](C)CC)[C@@H](C)CC)[C@@H](C)O)[C@@H](C)O)[C@@H](C)O` [Compound 6, pBF^11-rUcn] (H-DDPPLSIDLT[Bpa]HLLRTLLELARTQSQRERAEQNRIIFDSV-NH2; N-terminus assumed): in assay [2], the Ki came out at 400 ± 35 nM. In addition, the “Decrease of affinity to CRFBP relative to unmodified rUcn” value in assay [2] (modification within the central part of the peptide) was “three orders of magnitude”.

Consider ovine CRF [oCRF, reference compound], for which the “Suppression” value in assay [1] (setting [4]) and in assay [1] (setting [5]) was “not” throughout.

In the case of “LSIDLTFHLLRTLLELARTQSQRERAEQ-OH [Compound 7, rUcn^5-32, reference compound]”, the Ki in assay [2] is 1.1 ± 0.06 nM.

These data come from patent publication US20040260071A1, “Benzophene-linked crf and crf-like peptides for covalent labeling of corticotropin-releasing factor crf binding protein” (priority 2001, published 2004).
